Experimental findings from article PMC3618516, “A Systematic Screen of FDA-Approved Drugs for Inhibitors of Biological Threat Agents” (PLoS ONE, 2013) are described below.

pEC50: −log10 of the molar value. Read-outs that look alike come from different tables or passages of the source.

Experiment [1] has as its system Coxiella burnetii. The experiment can be described thus: microbe, parasite or virus in culture. The conditions noted are these: Vero, 168 h, read-out: Coxiella burnetii ICR (% protection). Type of experiment: cell-based.
The subject of experiment [2] is Francisella tularensis. The experiment can be described thus: microbe, parasite or virus in culture. Type of experiment: cell-based. The conditions noted are these: J774.A1, 15 h, read-out: Fransciella tularensis ICR (% protection).
In experiment [3] the test system is Bacillus anthracis. Kind of experiment: microbe, parasite or virus in culture. The conditions noted are these: J774.A1, 15 h, read-out: Bacillus anthracis ICR (% protection). Type of experiment: cell-based.
Experiment [4] concerns EBOV. It counts as cell-based, Ebola virus.
Experiment [5] has as its system MARV GP-pseudotyped vesicular stomatitis virus. Kind of experiment: microbe, parasite or virus in culture. Type of experiment: cell-based, Marburg virus. The conditions noted are these: for inhibition at 50 µM / inhibition at 10 µM: Vesicular stomatitis virus, HEK-293T, read-out: MASV VPEN (% activity).
For experiment [6], the system named is LASV. Type of experiment: cell-based, Lassa virus.
Experiment [7] deals with LASV GP-pseudotyped vesicular stomatitis virus. Kind of experiment: microbe, parasite or virus in culture. Type of experiment: cell-based, Lassa virus. The conditions noted are these: Vesicular stomatitis virus, HEK-293T, read-out: LASV VPEN (% activity).
In experiment [8] the test system is EBOV GP-pseudotyped vesicular stomatitis virus. The experiment can be described thus: microbe, parasite or virus in culture. The conditions noted are these: for inhibition at 50 µM / inhibition at 10 µM: Zaire ebolavirus, HEK-293T, read-out: EBOV VPEN (% activity). Type of experiment: cell-based, Ebola virus.
For experiment [9], the system named is Bacillus anthracis. Type of experiment: cell-based. The conditions noted are these: 50 µM.
Experiment [10] relates to Francisella tularensis. It counts as cell-based. The conditions noted are these: 50 µM.
Experiment [11] deals with MARV. The experiment can be described thus: organism not typed. Type of experiment: cell-based, Marburg virus.
For experiment [12], the system named is EBOV. The experiment can be described thus: microbe, parasite or virus in culture. Type of experiment: cell-based, Ebola virus.

With `CN(C)[C@@H]1C(O)=C(C(N)=O)C(=O)[C@@]2(O)C(O)=C3C(=O)c4c(O)cccc4[C@@](C)(O)[C@H]3C[C@@H]12` [Tetracycline], the inhibition of growth at 50 µM in experiment [1] stood at 0%. In addition, the inhibition at 50 µM in [2] came out at 103%; in experiment [3] it was 105%.
For the molecule `COc1c(C)c2c(c(O)c1C/C=C(\C)CCC(=O)OCCN1CCOCC1)C(=O)OC2` [Mycophenolate mofetil], the “EBOV VR” value in [4] (50 µM) was “−”. Also, the inhibition at 50 µM turned out to be 81% in experiment [5], 69% in experiment [7] and 91% in experiment [8]. For the same molecule, the “LASV VR” value in experiment [6] (50 µM) is reported as “−”.
As for `CCOC(=O)C1(c2ccccc2)CCN(CCC(C#N)(c2ccccc2)c2ccccc2)CC1` [Diphenoxylate], the “EBOV VR” value in experiment [4] (50 µM) is listed as “+”. The inhibition at 50 µM in [5] worked out at 95%; in experiment [7], 83%; in experiment [8], 96%.
Take `OC(CCN1CCCCC1)(c1ccccc1)C1CCCCC1` (stereo not shown) [Trihexyphenidyl]: the “EBOV VR” value in [4] is listed as “−”. The inhibition at 10 µM stood at 91% in experiment [5], 52% in [7] and 97% in [8]. Also, the “LASV VR” value in [6] is given as “−”.
For `CC(C(=O)O)c1ccc2c(c1)[nH]c1ccc(Cl)cc12` (stereo not shown) [Carprofen], the “EBOV VR” value in experiment [4] (10 µM) was “−”. The values for the inhibition at 10 µM in experiment [5] (10 µM), in experiment [7] (10 µM) and in experiment [8] (10 µM) were 88%, 50% and 94%, respectively. Besides, the “LASV VR” value in experiment [6] (10 µM) is recorded as “−”.
Regarding `CNCCCC1c2ccccc2C=Cc2ccccc21` [Protriptyline], the inhibition at 10 µM was found to be 80% in experiment [5], 28% in experiment [7] and 83% in experiment [8].
Take `CCN[C@@H]1C[C@H](N)[C@@H](O[C@H]2OC(CN)=CC[C@H]2N)[C@H](O)[C@H]1O[C@H]1OC[C@](C)(O)[C@H](NC)[C@H]1O` [Netilmicin]: the “Bacillus anthracis Broth (% protection)” value in experiment [9] is recorded as “+”. In addition, the inhibition of growth at 50 µM in [1] is 100%. In [10], the “Fransciella tularensis Broth (% protection)” value was “+”. For the same molecule, the values for the inhibition at 50 µM in [2] and in experiment [3] were -2% and 98%, respectively.
Regarding `CNCCC(Oc1ccc(C(F)(F)F)cc1)c1ccccc1` (stereo not shown) [Fluoxetine], the “EBOV VR” value in experiment [4] (10 µM) is “−”. The figures for the inhibition at 10 µM in experiment [5] (10 µM), in experiment [7] (10 µM) and in experiment [8] (10 µM) were 98%, 76% and 96%, respectively. Besides, the “LASV VR” value in experiment [6] (10 µM) is “−”.
For the molecule `CO/N=C1\CN(c2nc3c(cc2F)c(=O)c(C(=O)O)cn3C2CC2)CC1CN` (stereo not shown) [Gemifloxacin], in experiment [9], the “Bacillus anthracis Broth (% protection)” value is on record as “−”. The inhibition of growth at 50 µM in experiment [1] came to 0%. Also, the “Fransciella tularensis Broth (% protection)” value in [10] is given as “−”. Besides, the inhibition at 50 µM in [2] was determined as 91%; in experiment [3] it was 97%.
As to `CN1CCCN=C1COC(=O)C(O)(c1ccccc1)C1CCCCC1` (stereo not shown) [Oxyphencyclimine], in experiment [4] (50 µM), the “EBOV VR” value is “−”. Also, the inhibition at 50 µM in experiment [5] is 89%; in experiment [7] it was 28%; in experiment [8] it was 95%. Besides, the “LASV VR” value in experiment [6] (50 µM) is recorded as “−”.
For `CC(C)(C)NC[C@H](O)COc1ccccc1C1CCCC1` [Penbutolol], the figures for the inhibition at 10 µM in [5] (10 µM), in experiment [7] (10 µM) and in experiment [8] (10 µM) were 81%, 67% and 98%, respectively.
Consider `CN1CCC(OC(c2ccccc2)c2ccccc2)CC1` [Diphenylpyraline], for which, in [4] (50 µM), the “EBOV VR” value is recorded as “+”. The inhibition at 50 µM in experiment [5] came out at 85%; in experiment [7] it was 22%; in experiment [8] it was 96%. In addition, in [6] (50 µM), the “LASV VR” value was “−”.
For the molecule `CN(C)[C@@H]1C(O)=C(C(N)=O)C(=O)[C@@]2(O)C(O)=C3C(=O)c4c(O)cccc4[C@@](C)(O)[C@H]3[C@H](O)[C@@H]12` [Oxytetracycline], the “Bacillus anthracis Broth (% protection)” value in experiment [9] is “+”. The inhibition of growth at 50 µM in experiment [1] came to 0%. Further, the “Fransciella tularensis Broth (% protection)” value in experiment [10] was “+”. Besides, the results for the inhibition at 50 µM in experiment [2] and in experiment [3] were 92% and 94%, respectively.
Take `C[C@]12CC[C@@H]3c4ccc(O)cc4CC[C@H]3[C@@H]1CC[C@@H]2O` [Estradiol]: the “EBOV VR” value in experiment [4] (10 µM) is “−”. The inhibition at 10 µM in [5] (10 µM) amounted to 98%; in experiment [7] (10 µM) it was 50%; in [8] (10 µM) it was 93%. The “LASV VR” value in [6] (10 µM) is given as “−”.
On to `CN(C)c1ccc(O)c2c1C[C@H]1C[C@H]3[C@H](N(C)C)C(O)=C(C(N)=O)C(=O)[C@@]3(O)C(O)=C1C2=O` [Minocycline], for which the “Bacillus anthracis Broth (% protection)” value in experiment [9] is listed as “−”. In addition, the inhibition of growth at 50 µM in [1] is 0%. In addition, the “Fransciella tularensis Broth (% protection)” value in experiment [10] is listed as “−”. Also, the inhibition at 50 µM in experiment [2] came out at 92%; in [3] it was 95%.
On to `CN1CCC(=C2c3ccccc3CC(=O)c3sccc32)CC1` [Ketotifen], for which the “EBOV VR” value in experiment [4] (50 µM) is recorded as “+”. Besides, the values for the inhibition at 50 µM in experiment [5], in experiment [7] and in [8] were 97%, 33% and 99%, respectively. Moreover, the “LASV VR” value in experiment [6] (50 µM) is reported as “−”.
`CCC[C@@H]1C[C@@H](C(=O)N[C@@H]([C@H]2O[C@H](SC)[C@H](O)[C@@H](O)[C@H]2O)[C@H](C)Cl)N(C)C1` [Clindamycin]: in [1], the inhibition of growth at 50 µM amounted to 0%. Moreover, the inhibition at 50 µM in [2] came out at 83%.
Turning to `CNCC(O)c1ccc(OC(=O)C(C)(C)C)c(OC(=O)C(C)(C)C)c1` (stereo not shown) [Dipivefrin], in [4] (50 µM), the “EBOV VR” value was “−”. Also, the inhibition at 50 µM in [5] was 90%; in experiment [7], 90%; in experiment [8], 94%. In addition, the “LASV VR” value in experiment [6] (50 µM) was “−”.
As for `CN(C)CC[C@@H](c1ccc(Br)cc1)c1ccccn1` [Dexbrompheniramine], the results for the inhibition at 50 µM in [5], in experiment [7] and in experiment [8] were 80%, 74% and 85%, respectively.
On to `CN(C)CCOc1ccc(/C(=C(/CCCl)c2ccccc2)c2ccccc2)cc1` [Toremifene], for which the inhibition at 10 µM in [5] (10 µM) was found to be 96%; in experiment [7] (10 µM), 76%; in experiment [8] (10 µM) it was 97%.
On to `CCCCOc1cc(C(=O)NCCN(CC)CC)c2ccccc2n1` [Dibucaine], for which the “EBOV VR” value in experiment [4] (10 µM) is on record as “−”. Further, the inhibition at 10 µM came out at 93% in experiment [5] (10 µM), 49% in [7] (10 µM) and 99% in [8] (10 µM).
Turning to `CCOC(=O)C1=C(COCCN)NC(C)=C(C(=O)OC)C1c1ccccc1Cl` (stereo not shown) [Amlodipine], the figures for the inhibition at 10 µM in experiment [5] (10 µM), in experiment [7] (10 µM) and in [8] (10 µM) were 93%, 61% and 93%, respectively.
For `CCC(=O)O[C@@](Cc1ccccc1)(c1ccccc1)[C@@H](C)CN(C)C` [Levopropoxyphene], the inhibition at 50 µM in experiment [5] is 89%; in [7], 79%; in [8] it was 98%.
Turning to `OC(CCN1CCCCC1)(c1ccccc1)C1CC2C=CC1C2` (stereo not shown) [Biperiden], the “EBOV VR” value in [4] (50 µM) is reported as “−”. Also, the inhibition at 50 µM was 89% in [5], 27% in [7] and 98% in experiment [8]. The “LASV VR” value in experiment [6] (50 µM) is reported as “−”.
For `CCN(CC)CCCNc1ccnc2cc(Cl)ccc12` [AQ-13, Aminoquinoline-13], the pEC50 in experiment [5] (read-out: EC50, MARV Entry) was 5.37; in [11] (read-out: EC50, MARV Replication) it was 4.38; in experiment [8] (read-out: EC50, EBOV Entry), 5.37; in experiment [12] (read-out: EC50, EBOV Replication), 4.68. In addition, the EC90 in experiment [5] (read-out: EC90, MARV Entry) came out at 16 µM; in experiment [11] (read-out: EC90, MARV Replication), 48 µM; in experiment [8] (read-out: EC90, EBOV Entry), 20 µM; in experiment [12] (read-out: EC90, EBOV Replication), 39 µM.
In the case of `Fc1ccc([C@@H]2CCNC[C@H]2COc2ccc3c(c2)OCO3)cc1` [Paroxetine], the “EBOV VR” value in experiment [4] (10 µM) is recorded as “−”. The values for the inhibition at 10 µM in experiment [5] (10 µM), in [7] (10 µM) and in experiment [8] (10 µM) were 89%, 6% and 98%, respectively. Moreover, the “LASV VR” value in [6] (10 µM) is reported as “−”.
Consider `CC[C@H]1OC(=O)[C@H](C)[C@@H](O[C@H]2C[C@@](C)(OC)[C@@H](O)[C@H](C)O2)[C@H](C)[C@@H](O[C@@H]2O[C@H](C)C[C@H](N(C)C)[C@H]2O)[C@](C)(O)C[C@@H](C)C(=O)[C@H](C)[C@@H](O)[C@]1(C)O` [Erythromycin], for which the “EBOV VR” value in experiment [4] (10 µM) is given as “−”. The “Bacillus anthracis Broth (% protection)” value in [9] is “+”. Further, the inhibition at 10 µM in experiment [5] (10 µM) was 98%; in experiment [7] (10 µM), 60%; in experiment [8] (10 µM), 96%. The “LASV VR” value in experiment [6] (10 µM) is listed as “−”. Also, the inhibition of growth at 50 µM in experiment [1] is 100%. Further, the “Fransciella tularensis Broth (% protection)” value in [10] is reported as “+”. Further, the inhibition at 50 µM was found to be 104% in experiment [2] and 96% in [3].
Take `CN1CCN(CCCN2c3ccccc3Sc3ccc(Cl)cc32)CC1` [Prochlorperazine]: the values for the inhibition at 10 µM in experiment [5] (10 µM), in experiment [7] (10 µM) and in [8] (10 µM) were 93%, 70% and 95%, respectively.

A word on the pEC50: it is the negative decadic logarithm of the EC50, by convention in mol/L. As usually defined, the EC90 is the concentration at which the effect reaches the 90% level.
